Test results taken from patent US7128910B2, “Moraxella catarrahalis outer membrane protein-106 polypeptide, gene sequences and uses thereof” (priority 1996, dated 2006).

These substances were tested on M. catarrhalis ATCC 49143 (assay: Proteolytic digestion of intact cells followed by hemagglutination test). Conditions: intact cells digested 1 hour at room temperature.
Assay type: cell-based, Moraxella catarrhalis
Description: All proteases were obtained from Sigma Chemicals (St. Louis, Mo.). Immediately following the protease treatment, cells were washed once in PBS and resuspended in 1 ml of PBS and the hemagglutinating activity was tested. Additionally, protease-treated bacterial cells were extracted with octyl glucoside so the outer membrane proteins could be resolved to identify specific proteins that may have been digested by the proteases.

Row | Substance | Effect of protease treatment on hemagglutination activity
1 | chymotrypsin | destroyed the hemagglutination activity
2 | proteinase V8: Protease from Sigma Chemicals | did not affect hemagglutination activity
3 | trypsin | partially destroyed hemagglutination activity
